We go through 1 compound from patent publication US11390617B2, “Methods of treating non-Hodgkin lymphoma using 2-(2,6-dioxopiperidin-3-yl)-4-((2-fluoro-4-((3-morpholinoazetidin-1-yl)methyl)benzyl)amino)isoindoline-1,3-dione” (Celgene Corporation, priority 2019, dated 2022).

SMILES strings stand for the structures.

The subject of test [1] is RL follicular lymphoma xenograft tumors. Nature of the test: RL (follicular lymphoma) xenograft model, alone and in combination with rituximab. The note with it: Compound 1 0.3 mg/kg oral, 5 days on 2 days off for 3 weeks, single agent. The class given is in vivo, female SCID mice. The protocol: Female 6- to 8-weeks-old CB17 SCID mice were obtained from Charles River Laboratories. Mice were housed in a barrier facility in micro-isolator cages at 10 animals per cage. Mice were fed with Harlan-Teklad LM-485 Mouse/Rat Sterilizable Diet and autoclaved water ad libitum and maintained on a 12 hours light-dark cycle. Animals were acclimatized to the animal housing facility for a period of 7 days before the beginning of the experiment. All animal studies were performed under protocols approved by Institutional Animal Care and Use Committees.
Suspensions of Compound 1 were pared in aqueous 0.5% Methyl Cellulose, 0.25% Tween 80 and 50 mM Citrate pH 3. […]
Tumor cells were injected subcutaneously in the flank region above the right hind legs of female CB17 SCID mice. […] Tumor volumes were determined before the initiation of treatment and were considered as the starting volumes. Tumors were measured twice a week for the duration of the study. The long and short axes of each tumor were measured using a digital caliper in millimeters. The tumor volumes were calculated using the formula: width^2×length/2. […]
Xenograft data are expressed as mean±SEM. […]
Xenograft study was conducted with female SCID mice bearing RL follicular lymphoma xenograft tumors. […] Tumors were measured twice a week using calipers and tumor volumes were calculated using the formula of W^2×L/2. […]

In test [2] the test system is lymphoma cell lines WSU-DLCL2, SU-DHL6 and RL. Nature of the test: Macrophage mediated phagocytosis (ADCP) with rituximab. In kind it is cell-based. Particulars: macrophages treated with Compound 1 10 nM 48 hours, 3 hours. The protocol:
Monocyte-derived macrophages (MDM) were generated by plating 8×10^6 commercial monocytes isolated from PBMC in RPMI media supplemented with 10% FBS, 1% L-glutamine and 60 ng/mL macrophage colony-stimulating factor (M-CSF) during 6 to 7 days. Then, MDM were treated with Compound 1 (10 nM) or DMSO control and cultured for an additional 48 hours prior to the assay. Lymphoma cell lines WSU-DLCL2, SU-DHL6 and RL were stained with CellTrace CFSE at 200 nM in PBS for 5 minutes at room temperature and added to the MDM cultures. At the time of co-culture, rituximab or isotype control were added to the media and cells were incubated at 37° C. during 3 hours. At the end of culture, cells were stained with anti-CD14 APC and images were acquired in Operetta. Phagocytosis index was calculated as cells positive for CFSE (green) and CD14 (red).

For the compound `O=C1CC[C@H](N2C(=O)c3cccc(NCc4ccc(CN5CC(N6CCOCC6)C5)cc4F)c3C2=O)C(=O)N1` [Compound 1, (S)-2-(2,6-dioxopiperidin-3-yl)-4-((2-fluoro-4-((3-morpholinoazetidin-1-yl)methyl)benzyl)amino)isoindoline-1,3-dione], in test [1], the tumor volume reduction came to 36%. Also, in test [2], the “phagocytosis of lymphoma cell lines mediated by macrophages (ADCP)” value is “enhances phagocytosis of lymphoma cell lines mediated by macrophages”.
